Species on record: Rattus norvegicus
Assay: DrugMatrix - Regimen: Daily Repeat
Assay type: toxicity, organism-based, Sprague-Dawley
Set-up: regimen Daily Repeat, gender Male, age 6-8 weeks
Conditions: in vivo, po, route oral GAVAGE, vehicle 100 % WATER; for ABSOLUTE BASOPHIL / ABSOLUTE EOSINOPHIL / ABSOLUTE LYMPHOCYTE / ABSOLUTE MONOCYTE / ABSOLUTE SEGMENTED NEUTROPHIL / BASOPHIL / EOSINOPHIL / ERYTHROCYTE COUNT / HEMATOCRIT / HEMOGLOBIN / LEUKOCYTE COUNT / LYMPHOCYTE / MEAN CORPUSCULAR HEMOGLOBIN / MEAN CORPUSCULAR HEMOGLOBIN CONCENTRATION / MEAN CORPUSCULAR VOLUME / MONOCYTE / NEUTROPHIL / NUCLEATED RED BLOOD CELLS / PLATELET COUNT: tissue Blood
[1] = 25 mg/kg, 120 h, tissue Plasma, dose level Low, time 5 day
[2] = 54 mg/kg, 72 h, dose level High, time 3 day
[3] = 54 mg/kg, 72 h, tissue Plasma, dose level High, time 3 day
[4] = 54 mg/kg, 120 h, dose level High, time 5 day
[5] = 54 mg/kg, 120 h, tissue Plasma, dose level High, time 5 day

Structure (SMILES): CCC1(c2ccccc2)C(=O)NC(=O)NC1=O [PHENOBARBITAL]
- CREATININE [1]: 0.15 mg/dL
- GLUCOSE [1]: 135.67 mg/dL
- LACTATE DEHYDROGENASE [1]: 131 u/L
- LIPASE [1]: 9.33 u/L
- PHOSPHORUS [1]: 11 mg/dL
- POTASSIUM [1]: 6.37 MEQ/L
- SODIUM [1]: 145.53 MEQ/L
- TOTAL BILIRUBIN [1]: 0.17 mg/dL
- TOTAL PROTEIN [1]: 6.23 G/DL
- URIC ACID [1]: 0.7 mg/dL
- ABSOLUTE BASOPHIL [2]: 0 CELLS/uL
- ABSOLUTE EOSINOPHIL [2]: 0 CELLS/uL
- ABSOLUTE LYMPHOCYTE [2]: 6613.67 CELLS/uL
- ABSOLUTE MONOCYTE [2]: 76.67 CELLS/uL
- ABSOLUTE SEGMENTED NEUTROPHIL [2]: 1009.67 CELLS/uL
- BASOPHIL [2]: 0%
- EOSINOPHIL [2]: 0%
- ERYTHROCYTE COUNT [2]: 5.6 x10E6/uL
- HEMATOCRIT [2]: 34.33%
- HEMOGLOBIN [2]: 13.17 G/DL
- LEUKOCYTE COUNT [2]: 7.7 x10E3/uL
- LYMPHOCYTE [2]: 86%
- MEAN CORPUSCULAR HEMOGLOBIN [2]: 23.53 pg
- MEAN CORPUSCULAR HEMOGLOBIN CONCENTRATION [2]: 38.37 G/DL
- MEAN CORPUSCULAR VOLUME [2]: 61.37 fL
- MONOCYTE [2]: 1%
- NEUTROPHIL [2]: 13%
- NUCLEATED RED BLOOD CELLS [2]: 0 /100WBC
- PLATELET COUNT [2]: 1130.67 x10E3/uL
- ALANINE AMINOTRANSFERASE [3]: 66.33 u/L
- ALBUMIN [3]: 3.9 G/DL
- ALKALINE PHOSPHATASE [3]: 296.33 u/L
- ASPARTATE AMINOTRANSFERASE [3]: 99.33 u/L
- BLOOD UREA NITROGEN [3]: 16.33 mg/dL
- CARBON DIOXIDE [3]: 35.67 mmol/L
- CHLORIDE [3]: 98.5 MEQ/L
- CHOLESTEROL [3]: 85.67 mg/dL
- CREATINE PHOSPHOKINASE [3]: 643 u/L
- CREATININE [3]: 0.14 mg/dL
- GLUCOSE [3]: 132.33 mg/dL
- LACTATE DEHYDROGENASE [3]: 152.67 u/L
- LIPASE [3]: 11 u/L
- PHOSPHORUS [3]: 10.93 mg/dL
- POTASSIUM [3]: 5.81 MEQ/L
- SODIUM [3]: 144.8 MEQ/L
- TOTAL BILIRUBIN [3]: 0.2 mg/dL
- TOTAL PROTEIN [3]: 5.87 G/DL
- URIC ACID [3]: 0.63 mg/dL
- ABSOLUTE BASOPHIL [4]: 0 CELLS/uL
- ABSOLUTE EOSINOPHIL [4]: 0 CELLS/uL
- ABSOLUTE LYMPHOCYTE [4]: 8394.67 CELLS/uL
- ABSOLUTE MONOCYTE [4]: 27.33 CELLS/uL
- ABSOLUTE SEGMENTED NEUTROPHIL [4]: 1011.33 CELLS/uL
- BASOPHIL [4]: 0%
- EOSINOPHIL [4]: 0%
- ERYTHROCYTE COUNT [4]: 5.14 x10E6/uL
- HEMATOCRIT [4]: 32.97%
- HEMOGLOBIN [4]: 12.8 G/DL
- LEUKOCYTE COUNT [4]: 9.43 x10E3/uL
- LYMPHOCYTE [4]: 89.33%
- MEAN CORPUSCULAR HEMOGLOBIN [4]: 24.87 pg
- MEAN CORPUSCULAR HEMOGLOBIN CONCENTRATION [4]: 38.83 G/DL
- MEAN CORPUSCULAR VOLUME [4]: 64.1 fL
- MONOCYTE [4]: 0.33%
- NEUTROPHIL [4]: 10.33%
- NUCLEATED RED BLOOD CELLS [4]: 0 /100WBC
- PLATELET COUNT [4]: 1251 x10E3/uL
- ALANINE AMINOTRANSFERASE [5]: 51 u/L
- ALBUMIN [5]: 4.2 G/DL
- ALKALINE PHOSPHATASE [5]: 333.33 u/L
- ASPARTATE AMINOTRANSFERASE [5]: 88.33 u/L

Source: ChEMBL document CHEMBL3885881, “DrugMatrix”
